Inhibition and melting point data for 3 compounds are collected here from patent US8552049B2, “Pyrazolecarboxamide derivatives and their use as microbiocides” (Syngenta Corp Protection, LLC, priority 2010, dated 2013).

Series [1] has as its system Botrytis cinerea. Put plainly: Action against Botrytis cinerea - fungal growth assay. To be noted: 0.002% active ingredient, PDB nutrient broth, 24° C., photometrically after 3-4 days. Format: cell-based. Here is the method:
(§1) Action Against Botrytis cinerea—Fungal Growth Assay Conidia of the fungus from cryogenic storage was directly mixed into nutrient broth (PDB potato dextrose broth). After placing a (DMSO) solution of the test compounds (0.002% active ingredient) into a microtiter plate (96-well format) the nutrient broth containing the fungal spores was added. The test plates were incubated at 24° C. and the inhibition of growth was measured photometrically after 3-4 days. The activity of a compound was expressed as fungal growth inhibition (0=no growth inhibition, ratings of 80% to 99% mean good to very good inhibition, 100%=complete inhibition). Compounds 1.003 and 1.004 show very good activity in this test (≧80% inhibition).

Series [2] has as its system Mycosphaerella arachidis. Put plainly: Action against Mycosphaerella arachidis (early leaf spot of groundnut) - fungal growth assay. Format: cell-based. To be noted: 0.002% active ingredient, PDB nutrient broth, 24° C., photometrically after 6-7 days. Here is the method: as §1, with “Against Mycosphaerella arachidis (Early Leaf Spot of Groundnut; Cercospora arachidicola [Anamorph])—Fungal” for “Against Botrytis cinerea—Fungal”, “storage were” for “storage was”, “after 6-7” for “after 3-4”

For series [3], the system named is Septoria tritici. Put plainly: Action against Septoria tritici - fungal growth assay. Format: cell-based. To be noted: Zymoseptoria tritici; 0.002% active ingredient, PDB nutrient broth, 24° C., photometrically after 72 hrs. The protocol:
as §1, with “Against Septoria tritici—Fungal” for “Against Botrytis cinerea—Fungal”, “storage were” for “storage was”, “was determined” for “was measured”, “after 72 hrs.” for “after 3-4 days.”, “inhibition).” for “inhibition). Compounds 1.003 and 1.004 show very good activity in this test (≧80% inhibition).”

Series [4] relates to Monographella nivalis. The experiment in a line: Action against Monographella nivalis (snow mould) - fungal growth assay. Format: cell-based. To be noted: 0.002% active ingredient, PDB nutrient broth, 24° C., photometrically after 72 hrs. The protocol: Action Against Monographella nivalis (Anamorph: Fusarium nivale, Microdochium nivale; Snow Mould)—Fungal Growth Assay Conidia of the fungus from cryogenic storage were directly mixed into nutrient broth (PDB potato dextrose broth). After placing a DMSO-solution of the test compounds (0.002% active ingredient) into a microtiter plate (96-well format) the nutrient broth containing the fungal spores was added. The test plates were incubated at 24° C. and the inhibition of growth was measured photometrically after 72 hrs (0=no growth inhibition, ratings of 80% to 99% mean good to very good inhibition, 100%=complete inhibition).

Series [5] has as its system Erysiphe graminis f.sp. tritici. The experiment in a line: Action against Erysiphe graminis f.sp. tritici (wheat powdery mildew), wheat leaf segments. The class given is in vivo. To be noted: Blumeria graminis, foliar, 168 h; wheat leaf segments sprayed with 0.02% active ingredient, assessed 7 days after inoculation; read-out: preventive fungicidal activity (inhibition). Here is the method:
Action Against Erysiphe graminis f.sp. tritici (Wheat Powdery Mildew) Wheat leaf segments were placed on agar in multiwell plates (24-well format) and sprayed with test solutions (0.02% active ingredient). After drying, the leaf disks were inoculated with a spore suspension of the fungus. After appropriate incubation the activity of a compound was assessed 7 days after inoculation as preventive fungicidal activity.

Series [6] concerns Puccinia recondita. Put plainly: Protective action against Puccinia recondita (brown rust) on wheat leaf segments. The class given is in vivo. The following applies: foliar, 192 h, wheat leaf segments sprayed with 0.02% active ingredient, assessed 8 days after inoculation, read-out: preventive fungicidal activity (inhibition). Here is the method: Protective Action Against Puccinia recondita (Brown Rust) on Wheat Wheat leaf segments were placed on agar in multiwell plates (24-well format) and sprayed with test solutions (0.02% active ingredient). After drying, the leaf disks were inoculated with a spore suspension of the fungus. After appropriate incubation the activity of a compound was assessed 8 days after inoculation as preventive fungicidal activity.

The subject of series [7] is Puccinia recondita. The experiment in a line: Curative action against Puccinia recondita (brown rust) on wheat leaf segments. The class given is in vivo. To be noted: foliar, wheat leaf segments sprayed with 0.02% active ingredient one day after inoculation, assessed 8 days after inoculation, read-out: curative fungicidal activity (inhibition). Here is the method: Curative Action Against Puccinia recondita (Brown Rust) on Wheat Wheat leaf segments were placed on agar in multiwell plates (24-well format) and inoculated with a spore suspension of the fungus. One day after inoculation the leaf segments were sprayed with test solutions (0.02% active ingredient). After appropriate incubation the activity of a compound was assessed 8 days after inoculation as curative fungicidal activity.

In series [8] the test system is Pyrenophora teres. The experiment in a line: Action against Pyrenophora teres (net blotch) on barley leaf segments. The class given is in vivo. The following applies: foliar, 96 h, barley leaf segments sprayed with 0.02% active ingredient, assessed 4 days after inoculation, read-out: preventive fungicidal activity (inhibition). Here is the method:
Action Against Pyrenophora teres (Net Blotch) on Barley Barley leaf segments were placed on agar in multiwell plates (24-well format) and sprayed with test solutions (0.02% active ingredient). After drying, the leaf disks were inoculated with a spore suspension of the fungus. After appropriate incubation the activity of a compound was assessed 4 days after inoculation as preventive fungicidal activity. Compounds 1.003 and 1.004 show very good activity in this test (≧80% inhibition).

Usually inhibition stands for the share of the control response that was lost under treatment. The term melting point denotes the temperature, or range, at which the solid turns liquid. `CON(C(=O)c1cn(C)nc1C(F)F)C(CF)Cc1c(Cl)cc(Cl)cc1Cl` (stereo not drawn) [Compound 1.004, 3-difluoromethyl-1-methyl-1H-pyrazole-4-carboxylic acid [1-fluoromethyl-2-(2,4,6-trichlorophenyl)-ethyl]-methoxy-amide] had a melting point of 117 to 118 °C. The compound further had an inhibition at 0.002 % strength in series [1] of no less than 80%. Further, in [2], the inhibition at 0.002 % strength is no less than 80%. Also, in series [3], the inhibition at 0.002 % strength is no less than 80%. For the same compound, in series [4], the inhibition at 0.002 % strength was no less than 80%. Moreover, the inhibition at 0.02 % strength in series [5] was no less than 80%. The inhibition at 0.02 % strength in [6] is no less than 80%. In addition, the inhibition at 0.02 % strength in series [7] was no less than 80%. The inhibition at 0.02 % strength in [8] was no less than 80%.
As for `CON(C(=O)c1cn(C)nc1C(F)F)C(CF)Cc1ccc(Cl)cc1Cl` (stereo not drawn) [Compound 1.003, 3-difluoromethyl-1-methyl-1H-pyrazole-4-carboxylic acid [2-(2,4-dichloro-phenyl)-1-fluoromethyl-ethyl]-methoxy-amide], the inhibition at 0.002 % strength in series [1], in [2], in [3] and in series [4] was no less than 80% throughout. The inhibition at 0.02 % strength in series [5], in series [6], in series [7] and in [8] was no less than 80% throughout.
For `CON(C(=O)c1cn(C)nc1C(F)(F)F)C(CF)Cc1c(Cl)cc(Cl)cc1Cl` (stereo not drawn) [Compound 3.004, 1-methyl-3-trifluoromethyl-1H-pyrazole-4-carboxylic acid [1-fluoromethyl-2-(2,4,6-trichlorophenyl)-ethyl]-methoxy-amide], the melting point is 131 to 133 °C.
